Where two headings read alike, the source gives them in different places.
Biological target: 11β-HSD1 (Homo sapiens, UniProt P28845)
Assay: biochemical
Conditions: for IC50: IC50 Range, Biological Test Example 1, microsomes from CHO cells overexpressing human 11β-HSD1; for inhibition at 0.1 µM: read-out: Average % inhibition at 100 nM, Biological Test Example 1, 100 nM compound
[1] = read-out: Average % inhibition at 111.1 nM, Biological Test Example 1, 111.1 nM compound
[2] = read-out: Average % inhibition at 111.1 nM

Chain of 11β-HSD1 (P28845 whole entry): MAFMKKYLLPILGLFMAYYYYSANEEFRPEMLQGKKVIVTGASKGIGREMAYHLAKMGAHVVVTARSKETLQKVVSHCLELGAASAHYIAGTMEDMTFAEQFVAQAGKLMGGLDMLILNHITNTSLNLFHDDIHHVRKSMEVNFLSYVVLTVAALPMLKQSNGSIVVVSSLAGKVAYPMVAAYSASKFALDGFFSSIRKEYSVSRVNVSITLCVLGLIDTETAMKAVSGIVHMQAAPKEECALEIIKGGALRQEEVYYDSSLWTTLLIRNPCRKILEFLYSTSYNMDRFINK

| SMILES | IC50 [nM] | inhibition at 0.1111 µM [1] [%] | inhibition at 0.1 µM [%] | inhibition at 0.1111 µM [2] [%] |
| --- | --- | --- | --- | --- |
| O=C1OC(CCO)(c2ccccc2F)CCN1c1cccc(-c2ccc(F)cc2Cl)n1 (stereo not drawn) [EXAMPLE 50, 3-(6-(2-chloro-4-fluorophenyl)pyridin-2-yl)-6-(2-fluorophenyl)-6-(2-hydroxyethyl)-1,3-oxazinan-2-one] | < 100 | 96.3 |  |  |
| C[C@@H](c1ccc(-c2ccc(F)cc2F)cc1)N1CC[C@](CC(O)CO)(c2ccc(F)cc2)OC1=O (stereo partly drawn) [EXAMPLE 52, (6S)-3-((S)-1-(2′,4′-difluorobiphenyl-4-yl)ethyl)-6-(2,3-dihydroxypropyl)-6-(4-fluorophenyl)-1,3-oxazinan-2-one] | < 100 |  | 98.6 |  |
| CC1(c2cccc(Cl)c2)CCN(c2cccc(N3CCCCC3)n2)C(=O)O1 (stereo not drawn) [EXAMPLE 53, 6-(3-chlorophenyl)-6-methyl-3-(6-(piperidin-1-yl)pyridin-2-yl)-1,3-oxazinan-2-one] | < 100 |  |  | 57.1 |
| CC1(c2ccccc2)CCN(c2ccnc(-c3ccc(F)cc3)n2)C(=O)O1 (stereo not drawn) [EXAMPLE 55, 3-(2-(4-fluorophenyl)pyrimidin-4-yl)-6-methyl-6-phenyl-1,3-oxazinan-2-one] | 100 to 1000 |  |  | 3.7 |
| CC1(c2ccccc2)CCN(c2ccnc(-c3cccc(F)c3)n2)C(=O)O1 (stereo not drawn) [EXAMPLE 56, 3-(2-(3-fluorophenyl)pyrimidin-4-yl)-6-methyl-6-phenyl-1,3-oxazinan-2-one] | 100 to 1000 |  |  | 5.6 |
| CC1(c2ccccc2)CCN(c2nccc(Cl)n2)C(=O)O1 (stereo not drawn) [EXAMPLE 57, 3-(4-chloropyrimidin-2-yl)-6-methyl-6-phenyl-1,3-oxazinan-2-one] | 100 to 1000 |  |  | 10.4 |
| CC1(c2ccccc2)CCN(c2nccc(-c3ccc(F)cc3F)n2)C(=O)O1 (stereo not drawn) [EXAMPLE 59, 3-(4-(2,4-difluorophenyl)pyrimidin-2-yl)-6-methyl-6-phenyl-1,3-oxazinan-2-one] | 100 to 1000 | 18 |  |  |
| CC1(c2ccccc2)CCN(c2nccc(-c3c(Cl)cccc3Cl)n2)C(=O)O1 (stereo not drawn) [EXAMPLE 60, 3-(4-(2,6-dichlorophenyl)pyrimidin-2-yl)-6-methyl-6-phenyl-1,3-oxazinan-2-one] | 100 to 1000 | 51.3 |  |  |
| C=CCC1(c2ccccc2)CCN(c2cccc(Br)c2)C(=O)O1 (stereo not drawn) [EXAMPLE 63, 6-allyl-3-(3-bromophenyl)-6-phenyl-1,3-oxazinan-2-one] | < 100 | 59 |  |  |
| O=C1OC(CCO)(c2ccccc2F)CCN1c1ccc(F)c(-c2ccc(F)cc2)c1 (stereo not drawn) [EXAMPLE 67, 3-(4′,6-difluorobiphenyl-3-yl)-6-(2-fluorophenyl)-6-(2-hydroxyethyl)-1,3-oxazinan-2-one] | < 100 | 96.6 | 93.1 |  |
| O=C1OC(CCO)(c2ccccc2)CCN1c1cccc(-c2ccc(F)cc2Cl)c1 (stereo not drawn) [EXAMPLE 68, 3-(2′-chloro-4′-fluorobiphenyl-3-yl)-6-(2-hydroxyethyl)-6-phenyl-1,3-oxazinan-2-one] | < 100 | 92.9 | 92 |  |
| O=C1OC(CCO)(c2ccccc2)CCN1c1cccc(-c2c(Cl)cccc2Cl)c1 (stereo not drawn) [EXAMPLE 69, 3-(2′,6′-dichlorobiphenyl-3-yl)-6-(2-hydroxyethyl)-6-phenyl-1,3-oxazinan-2-one] | < 100 | 94.8 | 94.7 |  |
| O=C(O)CC1(c2ccccc2)CCN(c2cccc(-c3ccc(F)cc3F)c2)C(=O)O1 (stereo not drawn) [EXAMPLE 70, 2-(3-(2′,4′-difluorobiphenyl-3-yl)-2-oxo-6-phenyl-1,3-oxazinan-6-yl)acetic acid] | 100 to 1000 | 9.3 |  |  |
| CC1(c2ccccc2)CCN(Cc2cccc(Br)c2)C(=O)O1 (stereo not drawn) [EXAMPLE 71, 3-(3-bromobenzyl)-6-methyl-6-phenyl-1,3-oxazinan-2-one] | 100 to 1000 |  |  |  |
| CC1(c2ccccc2)CCN(Cc2ccccc2Br)C(=O)O1 (stereo not drawn) [EXAMPLE 72, 3-(2-bromobenzyl)-6-methyl-6-phenyl-1,3-oxazinan-2-one] | < 100 | 77.5 |  |  |
| O=C1OC(CCO)(c2ccccc2)CCN1c1cccc(Br)c1 (stereo not drawn) [EXAMPLE 74, 3-(3-bromophenyl)-6-(2-hydroxyethyl)-6-phenyl-1,3-oxazinan-2-one] | < 100 | 70 |  |  |
| NCCC1(c2ccccc2)CCN(c2cccc(-c3ccc(F)cc3F)c2)C(=O)O1 (stereo not drawn) [EXAMPLE 75, 6-(2-aminoethyl)-3-(2′,4′-difluorobiphenyl-3-yl)-6-phenyl-1,3-oxazinan-2-one] | < 100 | 57.8 |  |  |
| NC(=O)CC1(c2ccccc2)CCN(c2cccc(-c3ccc(F)cc3F)c2)C(=O)O1 (stereo not drawn) [EXAMPLE 76, 2-(3-(2′,4′-difluorobiphenyl-3-yl)-2-oxo-6-phenyl-1,3-oxazinan-6-yl)acetamide] | < 100 |  | 81 |  |
| O=C1OC(CC(O)CO)(c2ccccc2)CCN1c1cccc(-c2ccc(F)cc2F)c1 (stereo not drawn) [EXAMPLE 77, 3-(2′,4′-difluorobiphenyl-3-yl)-6-(2,3-dihydroxypropyl)-6-phenyl-1,3-oxazinan-2-one] | < 100 | 89.2 | 88.7 |  |
| CC1(c2ccccn2)CCN(c2cccc(-c3ccc(F)cc3F)c2)C(=O)O1 (stereo not drawn) [EXAMPLE 80, 3-(2′,4′-difluorobiphenyl-3-yl)-6-methyl-6-(pyridin-2-yl)-1,3-oxazinan-2-one] | < 100 |  |  | 77.8 |
| COc1cccc([C@H](C)N2CCC(C)(c3ccccc3)OC2=O)c1 (stereo partly drawn) [EXAMPLE 84, 3-((S)-1-(3-methoxyphenyl)ethyl)-6-methyl-6-phenyl-1,3-oxazinan-2-one] | < 100 | 94.6 |  |  |
| COc1ccc([C@H](C)N2CCC(C)(c3ccccc3)OC2=O)cc1 (stereo partly drawn) [EXAMPLE 85, 3-((S)-1-(4-methoxyphenyl)ethyl)-6-methyl-6-phenyl-1,3-oxazinan-2-one] | < 100 | 102 |  |  |
| Cc1ccccc1C1(C)CCN([C@@H](C)c2ccccc2)C(=O)O1 (stereo partly drawn) [EXAMPLE 86, 6-methyl-3-((S)-1-phenylethyl)-6-o-tolyl-1,3-oxazinan-2-one] | < 100 | 85.7 |  |  |
| Cc1cccc(C2(C)CCN([C@@H](C)c3ccccc3)C(=O)O2)c1 (stereo partly drawn) [EXAMPLE 87, 6-methyl-3-((S)-1-phenylethyl)-6-m-tolyl-1,3-oxazinan-2-one] | < 100 |  |  |  |

The next lines start with results.

| IC50 [nM] | inhibition at 0.1111 µM [1] [%] | inhibition at 0.1 µM [%] | SMILES | inhibition at 0.1111 µM [2] [%] |
| --- | --- | --- | --- | --- |
| 100 to 1000 | 19.9 |  | CC(=O)NCc1cccc(-c2cccc(N3CCC(C)(c4ccccc4)OC3=O)c2)c1 (stereo not drawn) [EXAMPLE 41, N-((3′-(6-methyl-2-oxo-6-phenyl-1,3-oxazinan-3-yl)biphenyl-3-yl)methyl)acetamide] |  |
| 100 to 1000 | 36.7 |  | CN(C)C(=O)c1ccc(-c2cccc(N3CCC(C)(c4ccccc4)OC3=O)c2)cc1 (stereo not drawn) [EXAMPLE 42, N,N-dimethyl-3′-(6-methyl-2-oxo-6-phenyl-1,3-oxazinan-3-yl)biphenyl-4-carboxamide] |  |
| < 100 | 77.7 |  | CC1(c2ccccc2)CCN(c2cccc(-c3ccc(O)cc3)c2)C(=O)O1 (stereo not drawn) [EXAMPLE 43, 3-(4′-hydroxybiphenyl-3-yl)-6-methyl-6-phenyl-1,3-oxazinan-2-one] |  |
| 100 to 1000 | 35 |  | CC1(c2ccccc2)CCN(c2cccc(-c3ccc(C(N)=O)cc3)c2)C(=O)O1 (stereo not drawn) [EXAMPLE 44, 3′-(6-methyl-2-oxo-6-phenyl-1,3-oxazinan-3-yl)biphenyl-4-carboxamide] |  |
| 100 to 1000 | 31.2 |  | CC1(c2ccccc2)CCN(c2cccc(-c3ccccc3NS(C)(=O)=O)c2)C(=O)O1 (stereo not drawn) [EXAMPLE 45, N-(3′-(6-methyl-2-oxo-6-phenyl-1,3-oxazinan-3-yl)biphenyl-2-yl)methanesulfonamide] |  |
| 100 to 1000 | 46.4 |  | COC(=O)c1ccc(-c2cccc(N3CCC(C)(c4ccccc4)OC3=O)c2)cc1 (stereo not drawn) [EXAMPLE 46, methyl 3′-(6-methyl-2-oxo-6-phenyl-1,3-oxazinan-3-yl)biphenyl-4-carboxylate] |  |
| 100 to 1000 | 36.3 |  | CNS(=O)(=O)c1ccc(-c2cccc(N3CCC(C)(c4ccccc4)OC3=O)c2)cc1 (stereo not drawn) [EXAMPLE 47, N-methyl-3′-(6-methyl-2-oxo-6-phenyl-1,3-oxazinan-3-yl)biphenyl-4-sulfonamide] |  |
| 100 to 1000 | 37 |  | CC1(c2ccccc2)CCN(c2cccc(-c3ccc(CO)cc3)c2)C(=O)O1 (stereo not drawn) [EXAMPLE 48, 3-(4′-(hydroxymethyl)biphenyl-3-yl)-6-methyl-6-phenyl-1,3-oxazinan-2-one] |  |
| 100 to 1000 | 15.4 |  | CC1(c2ccccc2)CCN(c2cccc(-c3cccc(-c4nnn[nH]4)c3)c2)C(=O)O1 (stereo not drawn) [EXAMPLE 49, 3-(3′-(1H-tetrazol-5-yl)biphenyl-3-yl)-6-methyl-6-phenyl-1,3-oxazinan-2-one] |  |
| 100 to 1000 | 34.8 |  | CC1(c2ccccc2)CCN(c2nccc(-c3cccc(Cl)c3)n2)C(=O)O1 (stereo not drawn) [EXAMPLE 58, 3-(4-(3-chlorophenyl)pyrimidin-2-yl)-6-methyl-6-phenyl-1,3-oxazinan-2-one] |  |
| 100 to 1000 | 17.7 |  | CC1(c2ccccc2)CCN(c2nccc(-c3ccc(F)cc3)n2)C(=O)O1 (stereo not drawn) [EXAMPLE 61, 3-(4-(4-fluorophenyl)pyrimidin-2-yl)-6-methyl-6-phenyl-1,3-oxazinan-2-one] |  |
| 100 to 1000 | 20.5 |  | CC1(c2ccccc2)CCN(c2nccc(-c3cccc(F)c3)n2)C(=O)O1 (stereo not drawn) [EXAMPLE 62, 3-(4-(3-fluorophenyl)pyrimidin-2-yl)-6-methyl-6-phenyl-1,3-oxazinan-2-one] |  |
| < 100 | 75.3 |  | CC1(c2cccc(Cl)c2)CCN(c2cccc(-c3ccccc3)c2)C(=O)O1 (stereo not drawn) [EXAMPLE 79, 3-(biphenyl-3-yl)-6-(3-chlorophenyl)-6-methyl-1,3-oxazinan-2-one] |  |
| < 100 | 72.2 |  | CC1(c2ccccc2)CCN(c2cccc(Oc3ccccc3)c2)C(=O)O1 (stereo not drawn) [EXAMPLE 81, 6-methyl-3-(3-phenoxyphenyl)-6-phenyl-1,3-oxazinan-2-one] |  |

From patent US8575156B2, “Cyclic inhibitors of 11β-hydroxysteroid dehydrogenase 1” (Vitae Pharmaceuticals, Inc., priority 2007, dated 2013)
